In US12275731B2, “Azaindole inhibitors of wild-type and mutant forms of LRRK2” (DANA-FARBER CANCER INSTITUTE, INC., priority 2018, dated 2025) one finds remaining binding data, which are given here for three molecules.

Experiment in all cases: KinomeScan profiling
Assay type in all cases: binding

In one test the target is T1, BMX (Homo sapiens, UniProt P51813).
T1 construct: purchased KinomeScan®
T1 sequence (P51813 1-675): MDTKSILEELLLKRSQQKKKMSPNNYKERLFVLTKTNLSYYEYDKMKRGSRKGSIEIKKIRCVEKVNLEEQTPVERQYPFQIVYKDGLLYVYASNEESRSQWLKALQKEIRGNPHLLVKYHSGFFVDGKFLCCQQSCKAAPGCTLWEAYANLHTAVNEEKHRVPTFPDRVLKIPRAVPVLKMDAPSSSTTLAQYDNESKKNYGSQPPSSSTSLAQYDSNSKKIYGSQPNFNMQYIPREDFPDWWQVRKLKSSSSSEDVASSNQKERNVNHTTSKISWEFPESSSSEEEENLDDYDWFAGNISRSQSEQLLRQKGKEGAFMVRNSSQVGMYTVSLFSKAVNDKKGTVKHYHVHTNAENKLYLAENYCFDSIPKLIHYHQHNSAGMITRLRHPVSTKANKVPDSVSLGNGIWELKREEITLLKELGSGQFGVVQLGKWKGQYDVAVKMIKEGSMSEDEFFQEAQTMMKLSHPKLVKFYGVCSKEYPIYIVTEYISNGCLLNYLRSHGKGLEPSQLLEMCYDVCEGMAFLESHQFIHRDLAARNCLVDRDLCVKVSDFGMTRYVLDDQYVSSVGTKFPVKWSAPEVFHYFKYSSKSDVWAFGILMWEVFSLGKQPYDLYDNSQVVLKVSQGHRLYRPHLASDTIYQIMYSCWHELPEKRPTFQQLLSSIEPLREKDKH
The settings on record: read-out: % control. An outline of the steps:
(§1)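 The panel spans 468 kinases, and each inventive compound was applied at 1 μM from DMSO. Lower % control means stronger binding; the activity cut-off is set at less than 35%.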

The next test deals with T2, CDKL2 (Homo sapiens, UniProt Q92772).
T2 sequence (Q92772 1-493): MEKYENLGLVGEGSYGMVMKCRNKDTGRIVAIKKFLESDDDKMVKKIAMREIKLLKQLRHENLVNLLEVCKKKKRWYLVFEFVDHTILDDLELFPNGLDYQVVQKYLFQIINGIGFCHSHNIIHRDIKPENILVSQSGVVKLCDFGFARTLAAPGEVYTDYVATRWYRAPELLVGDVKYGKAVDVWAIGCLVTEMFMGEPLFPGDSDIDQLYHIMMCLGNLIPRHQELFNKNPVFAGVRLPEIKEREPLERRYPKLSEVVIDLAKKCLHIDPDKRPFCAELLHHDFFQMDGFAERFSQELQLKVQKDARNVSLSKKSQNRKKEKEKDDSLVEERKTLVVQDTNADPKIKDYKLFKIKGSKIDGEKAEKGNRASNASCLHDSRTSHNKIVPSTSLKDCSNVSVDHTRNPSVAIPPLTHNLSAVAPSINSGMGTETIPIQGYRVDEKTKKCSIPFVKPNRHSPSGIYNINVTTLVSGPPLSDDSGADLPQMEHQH
The following applies: CDKL2, 1 μM; read-out: % control. Summed up:
as §1

The target in test [1] is EGFR(L747-S752del, P753S) (Homo sapiens, UniProt P00533, DEL747-752/P753S). The following applies: read-out: % control. An outline of the steps:
as §1

For a further test, the target named is EPHA7 (Homo sapiens, UniProt Q15375). The following applies: EPHA7, 1 μM; read-out: % control. An outline of the steps: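 Single-point competition binding screen: 1 μM, DMSO, 468 kinases. Results reported as % control from RLU, normalised to DMSO and positive-control wells. Activity threshold: <35% control.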
The target in test [2] is T3, JAK3(JH1domain-catalytic) (Homo sapiens, UniProt P52333).
T3 construct: JAK3(JH1domain-catalytic); purchased KinomeScan®
The settings on record: read-out: % control. Summed up: as §1

Another test has as its target T4, JNK2 (Homo sapiens, UniProt P45984).
T4 construct: purchased KinomeScan®
The following applies: JNK2, 1 μM; read-out: % control. Summed up: as §1

Another test addresses MAST1 (Homo sapiens, UniProt Q9Y2H9). The following applies: MAST1, 1 μM; read-out: % control. Summed up:
as §1

In the next test the target is T5, SgK110 (Homo sapiens, UniProt P0C264).
T5 construct: purchased KinomeScan® (panel service)
T5 sequence (P0C264 1-359): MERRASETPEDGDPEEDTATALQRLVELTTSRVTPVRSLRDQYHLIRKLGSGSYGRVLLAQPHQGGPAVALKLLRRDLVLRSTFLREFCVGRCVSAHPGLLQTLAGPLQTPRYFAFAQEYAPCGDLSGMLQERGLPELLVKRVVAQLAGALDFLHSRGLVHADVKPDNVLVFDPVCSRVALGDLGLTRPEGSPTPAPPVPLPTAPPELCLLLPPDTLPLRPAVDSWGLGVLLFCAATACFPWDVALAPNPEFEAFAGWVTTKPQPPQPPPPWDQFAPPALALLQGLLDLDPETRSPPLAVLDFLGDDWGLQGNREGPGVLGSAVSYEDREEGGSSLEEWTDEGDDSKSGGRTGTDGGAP
The settings on record: SgK110, 1 μM; read-out: % control. Summed up:
as §1

T4 sequence (P45984 whole entry): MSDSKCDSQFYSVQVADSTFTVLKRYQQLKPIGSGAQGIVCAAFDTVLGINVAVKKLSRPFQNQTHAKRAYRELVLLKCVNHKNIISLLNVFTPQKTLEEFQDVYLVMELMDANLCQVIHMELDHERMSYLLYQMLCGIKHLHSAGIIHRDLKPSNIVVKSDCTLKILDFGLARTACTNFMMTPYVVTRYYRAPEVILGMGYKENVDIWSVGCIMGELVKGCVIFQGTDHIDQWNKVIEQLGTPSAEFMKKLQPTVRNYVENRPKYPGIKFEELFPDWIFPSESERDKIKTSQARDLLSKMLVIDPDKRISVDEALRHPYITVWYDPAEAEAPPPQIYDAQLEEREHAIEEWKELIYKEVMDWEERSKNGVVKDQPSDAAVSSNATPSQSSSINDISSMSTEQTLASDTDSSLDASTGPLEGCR
T3 sequence (P52333 822-1111 limits assumed): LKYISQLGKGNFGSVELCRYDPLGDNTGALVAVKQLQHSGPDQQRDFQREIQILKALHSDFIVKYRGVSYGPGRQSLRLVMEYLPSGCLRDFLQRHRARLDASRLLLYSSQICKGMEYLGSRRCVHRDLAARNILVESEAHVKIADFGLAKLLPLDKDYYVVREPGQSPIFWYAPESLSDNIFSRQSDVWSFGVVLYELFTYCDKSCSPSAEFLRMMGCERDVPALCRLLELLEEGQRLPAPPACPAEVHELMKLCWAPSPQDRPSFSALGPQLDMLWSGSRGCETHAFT
Chain of EGFR(L747-S752del, P753S) (P00533 with tags, fused parts or gaps DEL747-752/P753S): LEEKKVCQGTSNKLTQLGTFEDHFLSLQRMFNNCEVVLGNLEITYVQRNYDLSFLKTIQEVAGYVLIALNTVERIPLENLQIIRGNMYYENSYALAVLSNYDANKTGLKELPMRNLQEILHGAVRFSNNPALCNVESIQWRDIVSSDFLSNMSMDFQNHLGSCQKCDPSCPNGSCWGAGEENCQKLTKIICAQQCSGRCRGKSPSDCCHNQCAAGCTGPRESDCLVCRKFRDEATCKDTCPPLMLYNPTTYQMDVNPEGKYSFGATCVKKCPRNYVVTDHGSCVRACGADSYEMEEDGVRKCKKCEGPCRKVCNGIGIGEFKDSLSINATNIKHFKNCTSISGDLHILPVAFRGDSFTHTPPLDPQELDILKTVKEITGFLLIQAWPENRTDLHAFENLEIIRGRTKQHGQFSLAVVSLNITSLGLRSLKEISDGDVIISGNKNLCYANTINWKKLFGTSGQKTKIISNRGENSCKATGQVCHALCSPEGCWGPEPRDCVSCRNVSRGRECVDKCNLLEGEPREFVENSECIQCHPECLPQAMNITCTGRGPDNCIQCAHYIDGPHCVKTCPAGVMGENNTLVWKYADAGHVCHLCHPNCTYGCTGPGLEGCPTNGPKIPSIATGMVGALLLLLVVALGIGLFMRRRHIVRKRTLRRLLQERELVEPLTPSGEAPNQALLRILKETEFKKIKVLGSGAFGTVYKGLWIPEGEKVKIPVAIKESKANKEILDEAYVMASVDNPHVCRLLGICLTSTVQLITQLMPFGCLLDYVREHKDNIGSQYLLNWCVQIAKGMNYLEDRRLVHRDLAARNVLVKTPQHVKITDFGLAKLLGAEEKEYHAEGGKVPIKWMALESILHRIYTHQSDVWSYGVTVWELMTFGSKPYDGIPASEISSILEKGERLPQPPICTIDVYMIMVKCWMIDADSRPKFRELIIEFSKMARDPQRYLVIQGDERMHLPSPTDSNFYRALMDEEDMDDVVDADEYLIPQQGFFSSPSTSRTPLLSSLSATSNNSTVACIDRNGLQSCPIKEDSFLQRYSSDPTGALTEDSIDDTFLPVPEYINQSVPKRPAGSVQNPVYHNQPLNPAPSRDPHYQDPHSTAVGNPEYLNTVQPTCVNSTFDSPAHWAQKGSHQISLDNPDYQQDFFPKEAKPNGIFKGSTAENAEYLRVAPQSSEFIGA
Chain of EPHA7 (Q15375 28-998): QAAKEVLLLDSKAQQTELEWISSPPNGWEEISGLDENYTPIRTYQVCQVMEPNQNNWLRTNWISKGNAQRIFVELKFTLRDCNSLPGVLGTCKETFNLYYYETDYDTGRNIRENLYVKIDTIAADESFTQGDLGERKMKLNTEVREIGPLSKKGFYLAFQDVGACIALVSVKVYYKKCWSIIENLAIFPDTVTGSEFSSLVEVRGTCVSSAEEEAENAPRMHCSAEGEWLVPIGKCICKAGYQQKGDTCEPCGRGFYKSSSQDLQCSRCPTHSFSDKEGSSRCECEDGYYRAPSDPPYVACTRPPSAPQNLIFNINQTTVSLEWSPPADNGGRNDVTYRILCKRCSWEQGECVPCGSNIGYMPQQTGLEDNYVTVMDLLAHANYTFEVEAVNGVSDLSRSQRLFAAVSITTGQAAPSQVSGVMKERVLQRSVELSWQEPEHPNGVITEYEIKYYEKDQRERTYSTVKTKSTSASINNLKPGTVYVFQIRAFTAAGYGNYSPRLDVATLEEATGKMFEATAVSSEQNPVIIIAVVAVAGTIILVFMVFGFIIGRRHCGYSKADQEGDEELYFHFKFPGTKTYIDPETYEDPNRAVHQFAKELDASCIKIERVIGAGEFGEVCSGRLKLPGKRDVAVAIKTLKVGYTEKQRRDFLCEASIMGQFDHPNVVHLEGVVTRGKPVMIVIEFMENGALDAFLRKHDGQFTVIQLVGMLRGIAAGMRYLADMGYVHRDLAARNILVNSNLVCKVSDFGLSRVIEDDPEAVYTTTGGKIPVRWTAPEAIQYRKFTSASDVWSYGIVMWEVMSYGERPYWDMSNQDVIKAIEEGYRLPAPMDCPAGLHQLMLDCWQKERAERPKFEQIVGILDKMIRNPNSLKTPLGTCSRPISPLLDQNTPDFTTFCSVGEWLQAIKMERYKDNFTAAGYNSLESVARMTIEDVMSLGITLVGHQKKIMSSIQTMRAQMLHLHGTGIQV
Chain of MAST1 (Q9Y2H9 whole entry): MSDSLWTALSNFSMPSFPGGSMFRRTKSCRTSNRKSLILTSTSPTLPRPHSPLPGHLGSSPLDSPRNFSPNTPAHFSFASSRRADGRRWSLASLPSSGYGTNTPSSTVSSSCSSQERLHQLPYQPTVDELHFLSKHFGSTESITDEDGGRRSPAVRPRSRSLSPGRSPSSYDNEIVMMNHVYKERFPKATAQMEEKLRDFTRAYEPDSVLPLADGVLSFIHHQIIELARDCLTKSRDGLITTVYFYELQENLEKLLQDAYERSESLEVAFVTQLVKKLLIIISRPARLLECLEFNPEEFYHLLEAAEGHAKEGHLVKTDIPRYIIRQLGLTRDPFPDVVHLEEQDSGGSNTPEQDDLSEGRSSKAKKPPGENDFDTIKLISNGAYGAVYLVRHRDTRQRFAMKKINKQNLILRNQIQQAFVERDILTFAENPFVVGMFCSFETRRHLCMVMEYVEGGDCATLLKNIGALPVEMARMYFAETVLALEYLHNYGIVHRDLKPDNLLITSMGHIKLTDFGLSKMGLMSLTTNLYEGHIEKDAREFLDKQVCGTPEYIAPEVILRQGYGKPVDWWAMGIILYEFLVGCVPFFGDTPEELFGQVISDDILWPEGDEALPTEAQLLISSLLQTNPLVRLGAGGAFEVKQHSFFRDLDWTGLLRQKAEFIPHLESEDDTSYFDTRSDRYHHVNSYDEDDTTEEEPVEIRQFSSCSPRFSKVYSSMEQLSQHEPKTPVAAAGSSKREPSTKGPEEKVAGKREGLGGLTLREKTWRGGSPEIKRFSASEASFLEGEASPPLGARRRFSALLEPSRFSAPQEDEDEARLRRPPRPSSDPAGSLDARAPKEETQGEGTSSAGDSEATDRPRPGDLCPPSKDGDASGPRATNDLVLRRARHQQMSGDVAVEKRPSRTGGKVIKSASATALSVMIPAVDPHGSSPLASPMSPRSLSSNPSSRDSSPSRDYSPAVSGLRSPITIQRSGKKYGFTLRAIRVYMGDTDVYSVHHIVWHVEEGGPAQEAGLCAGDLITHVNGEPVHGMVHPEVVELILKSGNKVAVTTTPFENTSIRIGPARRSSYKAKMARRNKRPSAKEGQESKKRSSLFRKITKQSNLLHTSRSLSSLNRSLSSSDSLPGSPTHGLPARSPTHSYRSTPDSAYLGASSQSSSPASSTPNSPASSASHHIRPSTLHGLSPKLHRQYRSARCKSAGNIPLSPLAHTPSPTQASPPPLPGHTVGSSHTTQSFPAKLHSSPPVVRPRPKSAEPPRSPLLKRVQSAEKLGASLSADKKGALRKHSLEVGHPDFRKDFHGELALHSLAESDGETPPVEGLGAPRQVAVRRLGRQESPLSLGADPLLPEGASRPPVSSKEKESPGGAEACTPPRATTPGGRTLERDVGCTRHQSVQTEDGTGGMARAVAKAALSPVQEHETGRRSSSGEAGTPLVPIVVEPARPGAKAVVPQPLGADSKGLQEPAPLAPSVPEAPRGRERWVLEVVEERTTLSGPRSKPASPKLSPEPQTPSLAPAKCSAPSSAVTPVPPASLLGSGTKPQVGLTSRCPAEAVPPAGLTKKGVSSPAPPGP

As for `CNc1c(-c2cnn([C@H]3CCN(C(C)=O)C[C@@H]3F)c2)cnc2[nH]cc(Cl)c12` [Compound 77, 1-((3S,4S)-4-(4-(3-chloro-4-(methylamino)-1H-pyrrolo[2,3-b]pyridin-5-yl)-1H-pyrazol-1-yl)-3-fluoropiperidin-1-yl)ethan-1-one], the remaining binding at 1 µM at BMX came out at 88%; at CDKL2, 95%; in test [1], 92%; at EPHA7, 78%; in test [2], 8.2%; on JNK2, 17%. The values for the remaining binding at 1 µM at MAST1 and at SgK110 were 50% and 100%, respectively.

In the case of `CNc1c(-c2ccc(C(=O)N3CCC(N4CCOCC4)CC3)cc2)cnc2[nH]cc(Cl)c12` [Compound 96, (4-(3-chloro-4-(methylamino)-1H-pyrrolo[2,3-b]pyridin-5-yl)phenyl)(4-morpholinopiperidin-1-yl)methanone], the remaining binding at 1 µM came to 93% at BMX; 97% at CDKL2; 77% in test [1]; 96% on EPHA7; 7.8% in test [2]; 0.85% on JNK2. Besides, the remaining binding at 1 µM on MAST1 came out at 24%; on SgK110 it was 100%.

For `O=C(c1ccc(-c2cnc3[nH]cc(Cl)c3c2NC2CCCC2)cc1)N1CCC(N2CCOCC2)CC1` [Compound 101, (4-(3-chloro-4-(cyclopentylamino)-1H-pyrrolo[2,3-b]pyridin-5-yl)phenyl)(4-morpholinopiperidin-1-yl)methanone], the remaining binding at 1 µM on BMX amounted to 34%; on CDKL2, 100%; in test [1], 100%; at EPHA7, 96%; in test [2], 62%; at JNK2, 8.8%. The remaining binding at 1 µM at MAST1 turned out to be 70%; at SgK110 it was 100%.
